Test results from US20250042896A1, “POLYCYCLIC COMPOUND AS CBL-B INHIBITOR” (HAINAN SIMCERE ZAIMING PHARMACEUTICAL CO., LTD., priority 2021, published 2025).

Assays:
[1] = target: Cbl-b protein and UbcH5B-Ub (Homo sapiens (Human), UniProt Q13191); experiment: Cbl-b activity assay (HTRF, interaction between Cbl-b protein and UbcH5B-Ub); type: biochemical; settings: inhibition of interaction between Biotin-Cbl-b protein and Eu-Ubquitin-UbcH5B, HTRF signal 665 nm/615 nm
Protocol: Experiment purpose: Testing of inhibitory activity of compounds on the interaction between Cbl-b protein and UbcH5B-Ub
Experimental method: Eu-Ubquitin-UbcH5B was prepared by incubating Eu-Ubquitin (Cisbio) with UbcH5B (ENZO), E1 (ENZO) at 37° C. for 4 hours. Eu-Ubquitin-UbcH5B was aliquoted and stored at −80° C. Cbl-b activity assay was performed in 384-well plates (Perkin Elmer). 100 nL of 3-fold serial dilutions of compounds (final concentration 10 μM-0.5 nM, starting concentration 10 μM, 3-fold dilution, 10 points, 10th point being 0.5 nM) and 5 μL of 50 nM Biotin-Cbl-b protein (Sigma) were incubated for 1 hour at room temperature, and the reaction buffer was 50 mM HEPES pH 7.0 (Gibco), 100 mM NaCl (Sigma), 0.01% Triton X-100 (Sigma), 0.01% BSA (Sigma) and 1 mM DTT (Invitrogen). 5 μL of Src mixed solution (40 nM Src (R&D), 2 mM ATP (Sigma), 10 mM MgCl2 (Sigma)) was added to the reaction plate and incubated at room temperature for 3 hours. 10 μL of detection solution (12.5 nM Strepdividin-XL665 (Cisbio), 500 nM Eu-Ubquitin-UbcH5B, […] (Invitrogen), 0.004% BSA (Sigma)) was added to the reaction plate, incubated overnight at room temperature, and the HTRF signal (665 nm/615 nm) was read on Envision (Perkin Elmer). IC50 was calculated using IDBS XLfit.

Jurkat T cells = experiment: Jurkat T activation assay (IL-2 release, ELISA); type: cell-based; settings: IL-2 release of Jurkat T cells, Anti-Human CD3/CD28 stimulation, 48 hours, IL-2 ELISA
Protocol: Experiment purpose: Testing of effect of compounds on IL-2 release and activation of Jurkat T cells
Experimental method: 96-well cell plates (Corning) were coated with 2 μg/mL Anti-Human CD3 Clone OKT3 (BD) at 37° C. for 4 hours. 3-fold serial dilutions of compounds (final concentration 10 μM-4.6 nM, starting concentration 10 μM, 3-fold dilution, 8 points, 8th point being 4.6 nM) and 220 μL of 1.11×10^6/mL Jurkat T cells (ATCC) were incubated for 1 hour, 5 μL of 45 μg/mL Anti-Human CD28 Clone CD28.2 (BD) was added, mixed evenly, 100 μL was transferred to the aforementioned CD3-coated cell plate, cultured in a cell incubator at 37° C. for 48 hours, and the supernatant was collected and the IL-2 release was detected using an IL-2 ELISA kit (BD). EC50 was analyzed using Prism.

Sequence of Cbl-b protein and UbcH5B-Ub (Q13191 whole entry, species assumed): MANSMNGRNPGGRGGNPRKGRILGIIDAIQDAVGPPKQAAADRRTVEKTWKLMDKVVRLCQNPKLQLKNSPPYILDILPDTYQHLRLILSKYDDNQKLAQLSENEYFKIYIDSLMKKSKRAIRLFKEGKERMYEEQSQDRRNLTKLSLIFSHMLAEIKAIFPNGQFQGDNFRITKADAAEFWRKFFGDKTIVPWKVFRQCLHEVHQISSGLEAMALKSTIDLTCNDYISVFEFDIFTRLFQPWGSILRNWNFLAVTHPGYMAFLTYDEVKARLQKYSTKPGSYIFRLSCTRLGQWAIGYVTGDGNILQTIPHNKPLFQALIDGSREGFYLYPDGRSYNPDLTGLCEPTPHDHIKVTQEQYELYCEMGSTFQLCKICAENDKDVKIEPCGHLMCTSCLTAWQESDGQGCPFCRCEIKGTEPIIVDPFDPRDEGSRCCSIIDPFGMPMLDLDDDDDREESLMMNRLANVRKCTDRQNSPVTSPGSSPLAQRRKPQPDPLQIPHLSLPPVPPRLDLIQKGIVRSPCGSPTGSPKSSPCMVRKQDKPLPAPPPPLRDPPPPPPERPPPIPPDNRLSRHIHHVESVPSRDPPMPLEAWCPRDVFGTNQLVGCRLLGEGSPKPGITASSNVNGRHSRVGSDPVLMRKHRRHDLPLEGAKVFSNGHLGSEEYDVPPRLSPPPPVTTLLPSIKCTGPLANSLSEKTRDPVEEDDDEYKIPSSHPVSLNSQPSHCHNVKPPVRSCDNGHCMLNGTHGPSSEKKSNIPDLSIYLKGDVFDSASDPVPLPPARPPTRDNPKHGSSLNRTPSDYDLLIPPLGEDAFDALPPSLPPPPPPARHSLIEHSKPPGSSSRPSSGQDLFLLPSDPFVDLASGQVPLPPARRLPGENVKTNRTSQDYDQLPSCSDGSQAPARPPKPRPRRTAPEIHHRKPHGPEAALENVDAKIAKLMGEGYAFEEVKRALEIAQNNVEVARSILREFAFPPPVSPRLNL

| Molecule | IC50 [1] [nM] | EC50 (Jurkat T cells) [nM] |
| --- | --- | --- |
| Cc1cc(CN2CCC[C@H](C)C2)cc2c(=O)c(-c3cccc(C4(c5nncn5C)CC(C)C4)c3)coc12 (stereo partly drawn) [Compound 58, (S)-8-methyl-3-(3-(3-methyl-1-(4-methyl-4H-1,2,4-triazol-3-yl)cyclobutyl)phenyl)-6-((3-methylpiperidin-1-yl)methyl)-4H-chromen-4-one] | 9.7 | 112 |
| CC1CC(c2cccc(-c3cnc4c(C(F)(F)F)cc(CN5CC6CC(C)(C6)C5)cn4c3=O)c2)(c2nncn2C)C1 (stereo not shown) [Compound 62] | 23.6 | 525 |
| Cc1cc(CN2CCC[C@H](C)C2)cc2c(=O)c(-c3cncc(C4(c5nncn5C)CC(C)C4)c3)coc12 (stereo partly drawn) [Compound 65, (S)-8-methyl-3-(5-(3-methyl-1-(4-methyl-4H-1,2,4-triazol-3-yl)cyclobutyl)pyridin-3-yl)-6-((3-methylpiperidin-1-yl)methyl)-4H-chromen-4-one] | 17 | 265 |
| Cc1c(F)c(CNC2(C)CCC2)cc2c(=O)c(-c3cccc([C@]4(c5nncn5C)C[C@@H](C)C4)c3)coc12 [Compound 122, 7-fluoro-8-methyl-3-(3-(cis-3-methyl-1-(4-methyl-4H-1,2,4-triazol-3-yl)cyclobutyl)phenyl)-6-(((1-methylcyclobutyl)amino)methyl)-4H-chromen-4-one] | 12.3 | 555 |
| Cc1cc(C(C)NC2(C)CCC2)cc2c(=O)c(-c3cccc([C@]4(c5nncn5C)C[C@@H](C)C4)c3)coc12 (stereo partly drawn) [Compound 123, 8-methyl-3-(3-(cis-3-methyl-1-(4-methyl-4H-1,2,4-triazol-3-yl)cyclobutyl)phenyl)-6-(1-((1-methylcyclobutyl)amino)ethyl)-4H-chromen-4-one] | 5.4 | 53.6 |
| CC(NC1(C)CCC1)c1cc(C(F)(F)F)c2ncc(-c3cccc([C@]4(c5nncn5C)C[C@@H](C)C4)c3)c(=O)n2c1 (stereo partly drawn) [Compound 126, 3-(3-(cis-3-methyl-1-(4-methyl-4H-1,2,4-triazol-3-yl)cyclobutyl)phenyl)-7-(1-((1-methylcyclobutyl)amino)ethyl)-9-(trifluoromethyl)-4H-pyrido[1,2-a]pyrimidin-4-one] | 11.1 | 80.5 |

Further lines, results first:

| IC50 [1] [nM] | EC50 (Jurkat T cells) [nM] | Molecule |
| --- | --- | --- |
| 10.1 | 250 | Cc1c(F)c(CN2CCC[C@H](C)C2)cc2c(=O)c(-c3cccc(C4(c5nncn5C)CC(C)C4)c3)coc12 (stereo in doubt) [Compound 121, 7-fluoro-8-methyl-3-(3-(cis-3-methyl-1-(4-methyl-4H-1,2,4-triazol-3-yl)cyclobutyl)phenyl)-6-(((s)-3-methylpiperidin-1-yl)methyl)-4H-chromen-4-one] |
| 40.3 | 634 | CC1CC(c2cccc(-c3cnc4c(C(F)(F)F)cc(CN5CCC[C@H](C)C5)cn4c3=O)c2)(c2nncn2C)C1 (stereo partly drawn) [Compound 2, 3-[3-[3-methyl-1-(4-methyl-4H-1,2,4-triazol-3-yl)cyclobutyl]phenyl]-7-[[(3S)-3-methyl-1-piperidyl]methyl]-9-(trifluoromethyl)pyrido[1,2-a]pyrimidin-4-one] |
| 27.1 | 426 | C[C@H]1CCCN(Cc2cc(C(F)(F)F)c3ncc(-c4cccc([C@]5(c6nncn6C)C[C@@H](C)C5)c4)c(=O)n3c2)C1 [Compound 2-P1] |
| 15 | 552 | Cc1cc(CN2CCC[C@H](C)C2)cc2c(=O)c(-c3cccc(C4(c5nncn5C)CC(F)C4)c3)coc12 (stereo partly drawn) [Compound 69, 3-(3-((1R,3S)-3-fluoro-1-(4-methyl-4H-1,2,4-triazol-3-yl)cyclobutyl)phenyl)-8-methyl-6-(((S)-3-methylpiperidin-1-yl)methyl)-4H-chromen-4-one] |
| 17.5 | 688 | Cc1cc(CN2CCC[C@H](C)C2)cc2c(=O)c(-c3cccc(C(F)(c4nncn4C)C4CC4)c3)coc12 (stereo partly shown) [Compound 120] |
| 19.7 | 383 | Cc1c(F)c(CN2CCC[C@H](C)C2)cc2c(=O)c(-c3cccc(C(c4nncn4C)C4CC4)c3)coc12 (stereo partly drawn) [Compound 124, 3-(3-(cyclopropyl(4-methyl-4H-1,2,4-triazol-3-yl)methyl)phenyl)-7-fluoro-8-methyl-6-(((S)-3-methylpiperidin-1-yl)methyl)-4H-chromen-4-one] |
| 28.6 | 279 | Cc1cc(CN2CCC[C@H](C)C2)cc2c(=O)c(-c3cccc(C(F)(c4nncn4C)C(F)(F)F)c3)coc12 (stereo partly drawn) [Compound 128, 8-methyl-6-(((S)-3-methylpiperidin-1-yl)methyl)-3-(3-(1,2,2,2-tetrafluoro-1-(4-methyl-4H-1,2,4-triazol-3-yl)ethyl)phenyl)-4H-chromen-4-one] |
| 17.8 | 456 | (1S,3R)-3-(4-methyl-4H-1,2,4-triazol-3-yl)-3-(3-(8-methyl-6-(((S)-3-methylpiperidin-1-yl)methyl)-4-oxo-4H-chromen-3-yl)phenyl)cyclobutylacetonitrile [Compound 68] |
